We go through two molecules from PMC6220849, “Mechanistic and structural studies of KDM‐catalysed demethylation of histone 1 isotype 4 at lysine 26” (Febs Letters, 2018).

Ends that are not written are not given here. Me3 = N-epsilon-trimethyl on lysine

The target in experiment [1] is T1, recombinant human KDM4A (Homo sapiens, UniProt O75164).
T1 construct: recombinantly expressed as reported either in Escherichia coli (KDM2A1–557 25, KDM4A1–359 26); His6 (N); made in house; host or cells: Escherichia coli
T1 sequence (O75164 1-359): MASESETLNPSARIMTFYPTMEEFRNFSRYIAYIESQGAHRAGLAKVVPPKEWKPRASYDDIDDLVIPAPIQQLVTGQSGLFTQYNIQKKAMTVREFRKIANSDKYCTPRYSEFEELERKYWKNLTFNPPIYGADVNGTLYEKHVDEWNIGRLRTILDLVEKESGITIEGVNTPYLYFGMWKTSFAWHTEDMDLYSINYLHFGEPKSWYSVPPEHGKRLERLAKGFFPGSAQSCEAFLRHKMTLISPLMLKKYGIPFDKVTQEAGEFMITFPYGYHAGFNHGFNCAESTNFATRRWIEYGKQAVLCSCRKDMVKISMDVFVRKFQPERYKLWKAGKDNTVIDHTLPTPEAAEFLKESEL
Put plainly: Formaldehyde dehydrogenase (FDH)-coupled demethylation assay, Michaelis–Menten kinetics. The experiment is classed as biochemical. The conditions noted are these: peptide as substrate. How it is done:
Kinetic parameters for KDM4 enzymes were determined by use of an FDH (formaldehyde dehydrogenase)/NAD^+‐coupled) assay for quantification of the formaldehyde reaction byproduct, as previously described 27. […] Specific activities were measured using a 100‐μM peptide. For Michaelis–Menten experiments, peptide concentrations were varied. Reactions were monitored using a PHERAstar FS plate reader (BMG Labtech, Ortenberg, Germany) with 355 nm excitation and 460 nm emission. Kinetic parameters were calculated from the reaction rate during the initial linear phase of formaldehyde production, which were used to calculate specific activities or fitted to Michaelis–Menten equations using […] PRISM (GraphPad Software, La Jolla, CA, USA).
Michaelis–Menten kinetics were then conducted with KDM4A. Samples containing KDM4A, 2OG, ascorbate, H1.4K26me3 peptide, NAD^+ and FDH were analysed over time and kinetic parameters were determined by recording the initial reaction rates of NADH production (corresponding to enzymatic production of formaldehyde) at varying peptide concentration.

The target of experiment [2] is T2, KDM4A(1-359), catalytic domain of human histone lysine demethylase KDM4A (human, UniProt O75164 1-359).
T2 construct: KDM4A, human, catalytic domain, residues 1-359; In the crystal the active site holds Ni(II) (in place of Fe(II)) and N-oxalylglycine (NOG)
T2 sequence (looked up): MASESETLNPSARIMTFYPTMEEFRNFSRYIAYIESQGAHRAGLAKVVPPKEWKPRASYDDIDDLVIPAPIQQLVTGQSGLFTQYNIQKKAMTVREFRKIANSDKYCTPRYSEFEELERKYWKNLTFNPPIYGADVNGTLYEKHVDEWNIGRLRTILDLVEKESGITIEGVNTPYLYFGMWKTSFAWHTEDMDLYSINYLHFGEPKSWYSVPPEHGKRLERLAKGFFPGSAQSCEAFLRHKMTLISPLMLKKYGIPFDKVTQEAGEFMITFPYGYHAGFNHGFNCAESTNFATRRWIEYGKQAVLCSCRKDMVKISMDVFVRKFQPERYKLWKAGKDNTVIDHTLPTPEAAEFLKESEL
Put plainly: crystal structure; co-crystals of KDM4A(1-359).Ni(II).H1.4(18-32)K26me3.NOG; sitting drops at 4 °C, 0.1 M MIB buffer pH 6.0, 25% w/v PEG 1500; 10 mg/mL KDM4A, 5 mM peptide, 5 mM NOG, 4 mM NiCl2. As to conditions: both partners purified.

Setting [3] is: concentration varied, FDH/NAD+-coupled fluorescence assay, 50 mM HEPES pH 7.5, 0.01% Tween-20, 2OG 200 μM, KDM4A, mean and standard deviation of three independent replicates, SD.

Regarding “APATGGV-Kme3-KPHRYRP [H3(29–43)K36me3, histone H3 residues 29–43 peptide with Kme3 at K36, reference compound]”, in experiment [1] (setting [3]), the “K M” value is 66.8 ± 5.4 µM and the k cat was 0.12 ± 0.004 s⁻¹. The k cat/K M in experiment [1] (FDH-coupled assay, ratio of k cat (s^−1) and K M (μM)) amounted to 1900 M⁻¹ s⁻¹.

B1: H1.4(18–32)K26me3 peptide (histone 1 isotype 4, residues 18-32, N-epsilon-trimethyllysine at K26) (peptide)
peptide: TPVKKKARK(Me3)SAGAAK-NH2
notes: histone H1.4 (histone 1 isotype 4), residues 18-32; only residues 24-29 are seen in the crystal structure; also called H1.4K26me3; H1.4K26me3 peptide; source: synthetic peptide
B1: the binding result in experiment [2] is listed as “binds”.
